Experimental data reported in US8268854B2, “Aza-beta-carbolines and methods of using same” (The UWM Research Foundation, Inc., priority 2008, dated 2012).
Counter-ions that a name gives are not always drawn.

Test system: Male P rats
Test: Animal model of excessive (binge) alcohol consumption, operant alcohol responding
Format: in vivo, rat
Conditions: N=5 per compound, oral gavage, lever press for alcohol, FIG. 13, FIG. 14
Protocol: Male P rats are used as subjects. All animals are individually housed in shoebox cages in a temperature- and humidity-controlled room on a 12 h:12 h light/dark cycle (lights on at 8:00 AM, off at 8:00 PM) with food and water available ad libitum. All behavioral training and testing take place between 8:00 AM and 10:00 AM. All procedures are conducted in accordance with the NIH Guide for the Care and Use of Laboratory Animals.
10% (v/v) EtOH and 3% (w/v) sucrose solutions are prepared using previously published procedures (Harvey et al. J. Neurosci. 2002, 22, 3765-3775; June et al. Neuropsychopharmacology 2003, 28, 2124-2137) with deionized water. The solutions are prepared daily. Compounds are administered by oral gavage (20-60 mg/kg) in all studies (e.g., alcohol responding, sucrose responding) as indicated in FIG. 12. The compounds are mixed in deionized water and administered by gavage in an injection volume of 1 mL/kg 25 min prior to the behavioral task. […]
Approximately 100 μL of whole blood is collected from a rat's tail tip into a heparin-coated microsample tube. […] The results are calculated in units of mg/dL and printed within 20 s of each trial as previously reported (Harvey et al., J. Neurosci. 2002, 22, 3765-3775; June et al. Neuropsychopharmacology 2003, 28, 2124-2137). […]

SMILES	effect on excessive alcohol consumption
CCCOc1cc2c(cn1)[nH]c1cnccc12 [Compound 4, 3-Propoxy pyridino[4′,3′-4,5]pyrrolo[2,3-c]pyridine hydrochloride]	Reduce Excessive Alcohol Consumption
CCCOc1cc2c(cn1)[nH]c1ccncc12 [Compound 2, 8-Propoxypyridino[4′,3′-5,4]pyrrolo[3,2-c]pyridine hydrochloride]	Reduce Excessive Alcohol Consumption
